Tests used:
H9C2 cells = experiment: Lactate production by H9C2 cells; format: cell-based, rat; settings: for Lactate concentration / production in H9C2 cells (in words): relative to control
Experimental: H9C2 (2-1) embryonic rat heart cells (passage 12, obtained from American Type Culture Collection, Manassas, Va.) were cultured in Dulbecco's modified Eagle's medium (DMEM—Gibco-Invitrogen) containing 10% fetal bovine serum (FBS) and 100 U/ml penicillin-streptomycin at 37° C. in a humidified atmosphere containing 5% CO2. The cells were subcultured into 60 mm culture dishes when 80% confluent (before fusion into myotubes occurred) and were differentiated toward a cardiac phenotype by exposure to DMEM containing 1% horse serum and 0.1 μM all-trans retinoic acid (Sigma) for four days (Menard et al 1999. J Biol Chem 274:29063-70; Bronstrom et al 2000. Int J. Biochem Cell Biol 32:993-1006). Retinoic acid was prepared in the dark in DMSO and stored at −20° C. The concentration of DMSO in the culture media was less than 0.2%. Media was changed daily.
To screen for metabolic actions of dHPGs, H9C2 cells were exposed to a range of dHPG concentration (0.001 to 100 μM). Studies were conducted over six hours in serum-free Krebs-Henseleit (KH) solution (118 mM NaCl, 4.7 mM KCl, 1.2 mM KH2PO4, 1.2 mM MgSO4, 2.0 mM CaCl2, 25 mM NaHCO3, 0.4 mM Na2CO3) containing 0.4 mM palmitate (bound to fatty-acid free albumin), 5.5 mM glucose and 20 mU/L insulin. Aliquots of media (60 μl) were taken at 3 and 6 hours. Viability of cells was assessed by visual inspection of cell morphology using a microscope and by assessment of mitochondrial integrity (MTS—Promega). Accumulation of lactate in the bathing solution over 6 hrs was measured using a diagnostic kit (Sigma, St. Louis, Mo.). Lactate accumulation was expressed as μmol/mg protein. Protein content of the cultures was determined using a commercial Bicinchoninic Acid (BCA) protein assay kit from Sigma (St. Louis, Mo.). Pharmacological agents used as controls included Dicholoracetate (DCA), which directly stimulates glucose oxidation by activating pyruvate dehydrogenase and causes a reduction in lactate.
A variety of dHPG polymers were administered to H9C2 cells in culture and the lactate production analyzed (Tables 2, 3; FIGS. 1a, b). […] Concentration range data (0.0001 to 250.0 uM), as well as controls (dichloroacetate-7.5 mM, DCA-BDH), a group exposed to oxfenicine (2 mM, OXF-Fluka), and a group exposed to oligomycin (2.0 μM, Oligo-Sigma).

[1] = system: isolated working rat hearts; experiment: Isolated working rat hearts, normoxic non-ischemic perfusion
Experimental: Hearts from halothane (3-4%)-anesthetized male Sprague-Dawley rats were isolated and perfused as working preparations with Krebs-Henseleit (KH) solution at a left atrial preload of 11.5 mmHg and an aortic afterload of 80 mmHg in a closed recirculating system with oxygenated (95% O2-5% CO2) Krebs-Henseleit (KH) solution maintained at 37° C., as described (Burelle et al 2004. Am J Physiol Heart Circ Physiol 287:H1055-63; Allard et al 1994. Am J Physiol 267:H742-H750; Saeedi et al 2006. BMC Cardiovasc Disord 6:8). A first series of hearts was perfused with KH solution containing 0.6 or 1.2 mM [1-^14C]- or [9,10-^3H]-palmitate, prebound to fatty acid-free albumin (3%), together with 5.5 mM glucose, 0.5 mM lactate, and 20 mU/l insulin in order to measure rates of palmitate oxidation. A second series of hearts was perfused with KH solution containing 0.6 or 1.2 mM palmitate, 5.5 mM [5-^3H/U-^14C]-glucose, 0.5 mM lactate, and 20 mU/l insulin in order to measure glycolysis and glucose oxidation. Concentrations of insulin and substrates reflect values seen under physiologic and pathophysiologic conditions. […]
Heart rate and systolic pressure may be measured using a pressure transducer (Viggo-Spectramed, Oxnard, Calif.) inserted in the afterload line of the isolated heart. Cardiac output and aortic flow may be measured via external flow probes (Transonic Systems, Ithaca, N.Y.) on the left atrial preload and aortic afterload lines, respectively. External work performed by the heart is expressed as, “rate-pressure product”, the product of heart rate and peak systolic pressure, and “hydraulic work”, the product of cardiac output and peak systolic pressure. […]
Isolated, working rat hearts were exposed to 10 μM dHPG-85K-G71.4-C181.9-PEG26.7(RKK-108) and studied under normoxic, non-ischemic conditions. During normoxic, non-ischemic perfusion, RKK108 improves heart function (rate-pressure assessment—beats per minute×mmHg/1000) by about 10 to about 15% (FIG. 2), When heart function is assessed by hydraulic work an improvement of about 20% is also observed.

`CC[C@H]1/C=C/C=C/C[C@@H](C)[C@H](O)[C@@](C)(O)C(=O)[C@@H](C)[C@H](O)[C@@H](C)C(=O)[C@@H](C)[C@H](O)[C@@H](C)/C=C/C(=O)O[C@@H]2[C@H](C)[C@H](CC1)O[C@]1(CC[C@H](C)[C@H](C[C@@H](C)O)O1)[C@H]2C` [Oligomycin] was tested, and the “Lactate Production by H9C2 Cells” value (H9C2 cells; 2 μM) was 226 ± 10 % Control and the “Lactate concentration / production in H9C2 cells (in words)” value (H9C2 cells) was “increase in lactate concentration, greater than that of OXF-treated samples”.

In the case of `N[C@H](C(=O)O)c1ccc(O)cc1` [Oxfenicine], the Glycolysis [1] is reported as “accelerates both glucose oxidation and glycolysis”, the Glucose oxidation ([1]; RKK108 10 μM) is reported as “accelerates both glucose oxidation and glycolysis” and the Palmitate oxidation ([1]; RKK108 10 μM) is reported as “reduces palmitate oxidation”. The “Lactate Production by H9C2 Cells” value (H9C2 cells; 2 mM) was 130 ± 7 % Control and the “Lactate concentration / production in H9C2 cells (in words)” value (H9C2 cells) was “increase in lactate”.

For `O=C(O)C(Cl)Cl` [DCA, dichloroacetate], the “Lactate Production by H9C2 Cells” value (H9C2 cells; 7.5 mM) was 63 ± 5 % Control.
